Data as given in patent US20150018398A1, “METHODS OF USING ESTROGEN RECEPTOR-BETA LIGANDS AS RADIATION MITIGATORS” (The Regents of the University of California, priority 2013, published 2015).
Entries after “also recorded” stand apart in the source; their conditions may differ.

Key:
[1] = system: normal human bronchial epithelial (NHBE) cells; assay: Cell viability after irradiation (NHBE cells); format: cell-based; conditions: 5 nM for 2 h before irradiation (2 Gy), up to 48 h
Source text: An additional experiment was done using normal human bronchial epithelial (NHBE) cells (see FIG. 7). […] These collective findings support the underlying hypothesis on the role of ERβ signaling in modulating radiation sensitivity.

[2] = system: radiation-damaged reporter DNA in H23 lung cells; assay: Reporter DNA repair assay; format: cell-based, human; conditions: 24 h after transfection, 2 nM E2, 0.5 nM DPN or ERB
Source text: FIG. 9. […] 15; 59(6):1347-55); data are from 3 experiments (mean±SEM).

C57/BL6 mice = assay: Survival after lethal TBI, C57/BL6 mice; format: in vivo; conditions: male C57/BL6 mice; 8.5 Gy TBI; DPN 10 mg/kg SC or ERB-041 50 mg/kg oral gavage daily for 5 days starting 24 hours after TBI; 30 days
Source text: FIG. 15. […] Mice (n=8/group) received 8.5 Gy TBI. […] Controls received appropriate vehicle treatment (e.g. SC [CON SC] or OG [CON OG].
To validate our results above using a different animal model, we used C57/BL6 mice that were also bred and maintained in our AALAC-accredited animal facilities. As above, the UCLA ARC approved all studies. Male mice, 9 weeks-old, in a well-ventilated Lucite chamber without anesthesia received 8.5 Gy TBI from a Gamma Cell 40 irradiator (^137Cs source; Atomic Energy of Canada) at a dose rate of 67 cGy/min. […] Mice were monitored for 30 days using standard criteria for humane euthanasia as an endpoint and weights were recorded twice/week. […] These preliminary findings (FIGS. 14 & 15) provide good evidence to pursue further investigation of ERβ ligands as radiation mitigators.

[3] = system: VEGF secretion by H23 lung epithelial cells; assay: VEGF secretion by ELISA after irradiation; format: cell-based, human; conditions: for VEGF secretion after irradiation: H23, treated 2 hrs before irradiation (10 Gy), ELISA after 24 hrs; for increase in vascular endothelial growth factor (VEGF) secretion: lung epithelial cells pre-treated (E2 2 nM, DPN 5 nM, 2 hrs) before irradiation (10 Gy), P<0.001
C3H mice = assay: Survival after lethal TBI, C3H mice; format: in vivo; conditions: for lethality and survival after TBI: male C3H mice, 7.725 Gy TBI, DPN 10 mg/kg SC or ERB-041 50 mg/kg oral gavage daily for 5 days starting 24 h after TBI
Source text: C3H mice were bred and maintained in a strict defined-flora, pathogen-free environment in the AALAC-accredited animal facilities. The UCLA ARC approved all experiments which were done in accord with all local and national guidelines for care and use of animals. Male mice, 9-10 wks old, received 7.725 Gy TBI from a Gamma Cell 40 irradiator (^137Cs source; Atomic Energy of Canada) at a dose rate of 67 cGy/min. […] Mice were monitored for up to 60 days using standard criteria for humane euthanasia as an endpoint and weights were recorded twice/week.

[4] = system: H23 lung epithelial cells with ERβ silencing (ERbKD); assay: Cell survival after irradiation with ERβ siRNA knockdown; format: cell-based, human; conditions: lung epithelial cells treated with siRNA to suppress ERβ expression
Method: FIG. 8. H23 lung epithelial cells were transfected with control non-specific siRNAs (CON) or smart-pool ESR2 [ERβ] siRNA for ERβ silencing (ERbKD) as before (31,32); control cells were then treated with or without estradiol (E2) and compared with ERbKD cells treated with estradiol for 2 hrs before irradiation at 0-15 Gy as indicated in the figure (n=3 experiments); surviving cell fractions (%) are plotted on a log scale at increasing radiation doses.
To further assess the role of ERβ as a radioprotector and potential radiation mitigator, lung epithelial cells were treated with small inhibitory RNAs (siRNA) to suppress ERβ expression using established methods (Márquez-Garbán D C, Chen H W, Fishbein M C, Goodglick L, Pietras R J. Steroids. 2007 February; 72(2):135-43. Epub 2007 Feb. 5; Márquez D C, Chen H W, Curran E M, Welshons W V, Pietras R J. Mol Cell Endocrinol. 2006 Feb. 26; 246(1-2):91-100. Epub 2006 Jan. 4). […] Thus, ERβ appears to play a critical role in mediating effects of estrogen post-irradiation.

lung cells = assay: TUNEL assay of apoptosis after RT; format: cell-based; conditions: E2 10 nM, DPN 1 μM, PPT 1 μM for 2 h, then 15 Gy, TUNEL after 48 h
Source text: Cell death is a measurable outcome due to significant radiation injury.

[5] = system: human vascular endothelial cells (HUVEC); assay: Cell survival after irradiation, drug given 24 h after RT (HUVEC); format: cell-based; conditions: for cell survival post-radiation (radiation mitigation): HUVEC, treatment at 24 hours after irradiation, P<0.001
Source text: (§1) FIGS. 6A-6B. […] 15; 59(6):1347-55).
(§2) ER-selective ligands increase survival of epithelial and endothelial cells post-radiation.

[6] = system: ERβ-EGFR interaction in H23 lung tumor cells; assay: ERβ-EGFR co-immunoprecipitation; format: cell-based, human; conditions: DPN treatment
Method: EGF stimulates ERβ-EGFR interaction in epithelial cells. To assess the idea that ERβ interacts with EGFR to promote cross-talk in signaling, the association of these molecules in co-immunoprecipitation studies was tested in vitro (Márquez D C, Lee J, Lin T, Pietras R J. Endocrine. 2001 November; 16(2):73-81) (FIG. 4).

[7] = system: H23 lung epithelial cells; assay: Cell survival after irradiation (H23 lung epithelial cells); format: cell-based, human; conditions: P<0.001; for lung cell survival post-radiation: H23, pre-treatment before irradiation
Source text: as §1, §2

[8] = system: MDM2 in A549 lung epithelial cells; assay: MDM2 expression by Western blot; format: cell-based, human; conditions: E2 10 nM, DPN or PPT 1 μM for 24 h
Source text: Estrogens modulate MDM2 expression in lung cells. MDM2 is well known to bind and inhibit p53 FIG. 3). ERα binds and regulates the MDM2 promoter to stimulate MDM2 expression (see FIG. 12). Indeed, MDM2 SNP309 is reported to occur in an ER binding region of the MDM2 promoter, and affected individuals with SNP309 have increased MDM2 levels mediated by estrogen signaling (33,34).

[9] = system: phospho-serine-1981-ATM (PS-ATM) in A549 cells; assay: RT-induced ATM activation (PS-ATM staining); format: cell-based, human; conditions: treated 2 h, 5 Gy, stained 2 h after radiation, E2 10 nM, DPN/PPT 1 μM
Method: Phosphoryaltion of ATM is a critical first step in cell responses to RT (FIG. 3). Lung cells treated with control or estrogen for 2 hr were then irradiated and examined after 2 h for ATM activation (FIG. 10).

[10] = in vivo; cited from earlier work
[11] = system: sublethally-irradiated mice; conditions: treatment 24 h before RT; cited from earlier work
ERα = molecular target: T1, ERα (Homo sapiens, UniProt P03372); conditions: Harrington et al. 2003; cited from earlier work
T1 sequence (P03372 1-595): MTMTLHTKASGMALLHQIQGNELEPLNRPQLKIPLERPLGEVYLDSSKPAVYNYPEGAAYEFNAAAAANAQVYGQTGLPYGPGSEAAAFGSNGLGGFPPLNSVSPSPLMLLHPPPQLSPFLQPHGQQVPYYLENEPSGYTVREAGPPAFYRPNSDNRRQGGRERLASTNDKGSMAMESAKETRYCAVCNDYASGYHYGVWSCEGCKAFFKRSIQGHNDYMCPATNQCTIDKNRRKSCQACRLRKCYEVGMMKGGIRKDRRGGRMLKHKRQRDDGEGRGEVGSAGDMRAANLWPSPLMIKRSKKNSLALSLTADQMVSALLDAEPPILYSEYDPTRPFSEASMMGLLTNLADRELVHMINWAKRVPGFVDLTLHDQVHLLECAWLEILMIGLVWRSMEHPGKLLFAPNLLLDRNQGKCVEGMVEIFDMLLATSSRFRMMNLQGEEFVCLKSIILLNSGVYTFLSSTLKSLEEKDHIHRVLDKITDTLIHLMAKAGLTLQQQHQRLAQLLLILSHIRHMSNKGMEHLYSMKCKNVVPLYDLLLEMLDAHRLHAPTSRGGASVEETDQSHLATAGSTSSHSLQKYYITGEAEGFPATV

Row | SMILES | cell viability / protection from radiation injury ([1]; P<0.001) | repair of radiation-damaged reporter DNA [2] | lethality and survival after TBI (C57/BL6 mice) | VEGF secretion after irradiation [3] | increase in vascular endothelial growth factor (VEGF) secretion [3] | lethality and survival after TBI (C3H mice) | radioprotective / radiation mitigator effect in cells with ERβ knockdown [4] | radiation-induced apoptosis (lung cells) | cell survival post-radiation (radiation mitigation) [5] | lung cell survival post-radiation [7] | MDM2 levels [8] | ATM phosphorylation at serine 1981 (nuclear clustering of PS-ATM) after irradiation [9] | also measured
1 | N#CC(Cc1ccc(O)cc1)c1ccc(O)cc1 (stereo not shown) [DPN, 2,3-bis[4-hydroxyphenyl]-propionitrile] | protect normal epithelial cells from radiation injury; also recorded: significantly different from control | stimulation of enhanced DNA repair after irradiation; also recorded: stimulates repair of radiation-damaged reporter DNA | protects mice from lethality and improves survival | stimulate high levels of VEGF secretion | 2 fold | protected mice from lethality and improved survival | abolished | showed efficacy in suppressing radiation-induced apoptosis; also recorded: reduce radiation-induced apoptosis | mitigates these effects in HUVEC cells | dose-dependent increase in lung cell survival post-radiation | – | – | VEGF secretion, treatment after irradiation ([3]; treatment at 24 hours after irradiation (10 Gy), vs controls P<0.001): comparable increase in VEGF secretion; also recorded: significant increase in VEGF secretion; post-irradiation survival (C3H mice; mouse models in vivo, subcutaneous, treatment started 24 hours after TBI): 100%; post-irradiation time window (C3H mice; radiation mitigator): > 24 h; Cell survival ([5]; normal human lung epithelial and vascular endothelial cells in vitro, treatment at 24-hr after irradiation, vs controls P<0.001): significantly improved in a dose-dependent fashion; interaction of ER-beta with EGFR [6]: promotes interaction of ERβ with EGFR; also recorded: promotes interaction of ER-beta with EGFR; effect as a radiation mitigator ([7]; H23 cells, treatment at 24 hrs after irradiation, two experiments): comparable effect as a radiation mitigator
2 | C[C@]12CC[C@@H]3c4ccc(O)cc4CC[C@H]3[C@@H]1CC[C@@H]2O [E2, estradiol-17β] | – | stimulation of enhanced DNA repair after irradiation | – | stimulate high levels of VEGF secretion | 2 fold | – | failed to show a radioprotective effect | showed efficacy in suppressing radiation-induced apoptosis | – | – | stimulate MDM2 levels | increased | repair of radiation-damaged reporter DNA ([2]; listed as Estrogen): stimulate repair of radiation-damaged reporter DNA
3 | C=Cc1cc(O)cc2nc(-c3ccc(O)c(F)c3)oc12 [ERB-041, (4Z)-4-(7-ethenyl-5-hydroxy-3H-1,3-benzoxazol-2-ylidene)-2-fluorocyclohexa-2,5-dien-1-one] | protect normal epithelial cells from radiation injury | stimulation of enhanced DNA repair after irradiation | somewhat less efficacious as a radiation mitigator | – | – | somewhat less efficacious as a radiation mitigator | – | – | mitigates these effects in HUVEC cells | dose-dependent increase in lung cell survival post-radiation | – | – | cell viability / protection from radiation injury ([1]; P<0.001, listed as ERB): significantly different from control; oral bioavailability [10]: notable oral bioavailability
4 | O=c1c(-c2ccc(O)cc2)coc2cc(O)cc(O)c12 [Genistein] | – | – | – | – | – | – | – | – | – | – | – | – | survival of irradiated mice [11]: increased survival without other significant toxicity
5 | CCCc1c(-c2ccc(O)cc2)nn(-c2ccc(O)cc2)c1-c1ccc(O)cc1 [PPT, Propylpryazoletriol] | – | – | – | – | – | – | – | showed efficacy in suppressing radiation-induced apoptosis | – | – | stimulate MDM2 levels | not | ERα agonism (ERα): potent ERα agonist
